Measurements published in patent US8957074B2 (Novartis AG, priority 2010, dated 2015).
Like-named read-outs stand apart in the source and are kept apart here.

How the values were obtained:
CDK4/cyclin D1 = CDK4/cyclin D1 (Homo sapiens (Human), UniProt P11802); assay: CDK4/cyclin D1 enzymatic activity assay (TR-FRET, phosphorylation of pRb at Ser780); type: biochemical
Experimental: CDK4/Cyclin D1 Enzymatic Activity Assay
An assay for monitoring CDK4/cyclin D1-catalyzed phosphorylation of pRb at the Ser780 site was performed using TR-FRET in a 384-well format, and was used for IC50 determination and kinetic analysis. […] 3 μM ATP was added last to initiate the reaction. The reaction was quenched with 10 μL of 240 mM EDTA-Na (pH 8.0) after 60 min incubation at 22° C.
Human CDK4/cyclin D1 was expressed in Sf21 cells via baculovirus infection.

[1] = test system: phosphorylation of pRb at the Ser780 site in JeKo-1 mantle cell lymphoma cells; assay: CDK4 cellular assay: ELISA of pRb phosphorylation at Ser780 in JeKo-1 cells; type: cell-based; conditions: Homo sapiens
From the text: Cell-based assay measuring phosphorylation levels of pRb at the Ser780 site using an enzyme-linked immunosorbent assay (ELISA) method (Table 6). JeKo-1, a mantle-cell lymphoma cell line, was selected for use in this assay due to its known translocation and subsequent overexpression of cyclin D1. [Ref: Amin, H. M.; McDonnell, T. J.; Medeiros, L. J.; Rassidakis, G. Z.; Leventaki, V.; O'Connor, S. L.; Keating, M. J.; Lai, R. Characterization of 4 mantle cell lymphoma cell lines—Establishment of an in vitro study model. Arch. Pathol. Lab.
Cells were allowed to adhere overnight. […] 10 μL of the dilution were then transferred to the cell culture plate, resulting in a final concentration range of 10 μM to 2 nM. The incubation was carried out at 37° C. with 5% CO2. All compounds were tested in triplicates at each concentration. […] The plates were placed at 4° C. with vigorous shaking for 5 min to lyse the cells. The resulting lysates contained approximately 1 μg/μL of protein.
Plates were incubated overnight at 4° C. with rocking. […] After shaking for 10 minutes, the Superblock solution was replaced with fresh Superblock and plates were incubated on a shaker for an additional 50 min. After blocking, 30 μL of JeKo-1 cell lysate, containing approximately 10 μg total protein, were added to wells in triplicate. […] For all incubation steps, plates were covered with Uniseal plate sealers. […] Next, 50 μL of a 1:2500 dilution of donkey-anti-rabbit HRP (Promega catalog no. W401B) in PBS/10% Superblock were added, and plates were incubated for 30 min at room temperature on a shaker. Plates were again washed as described above. […] After incubation, 50 μL 2 M sulfuric acid were added to plates to top the reaction, and absorbance was determined on a SpectraMax (Molecular Devices, Sunnydale, Calif.) within 15 minutes at 450 nm. All washes were performed using a Bio-Tek plate washer.
The Total Rb ELISA kit (Invitrogen catalog no. KH00011) was used to determine the levels of total pRb. This kit uses wells precoated with a proprietary total pRb antibody for capture. All reagents listed, with the exception of cell lysate, were included in the kit. The nature of the antibodies used for capture and detection was labeled as proprietary and not disclosed. 10 μg of cell lysate was loaded into the wells and volume adjusted to 50 μL with standard dilution buffer. Plates were sealed with film included in the kit and incubated for 2 h at room temperature on a shaker. Plates are then manually washed three times with 250 μL wash buffer. 50 μL of proprietary primary antibody (pre-conjugated to biotin) was added to wells and incubated for 1 h at room temperature on a shaker. Then plates were again washed as noted above. The secondary antibody (HRP pre-conjugated to Streptavidin) was diluted 1:100 in Streptavidin-HRP diluent buffer and 50 μL was added to each well. Plates were then incubated for 30 min. Afterwards, plates were washed four times with buffer as outlined above. Finally, 50 μL stabilized Chromogen was added per well and plates were incubated for 15 min, at which point 50 μL of stop solution was added. Plates were then read on a Spectramax at 450 nm.
The total pRb levels were then used to adjust the p-pRb % inhibition values to account for any loss of signal due to the absence of the pRb protein itself, and the IC50 values obtained from the adjusted % inhibitions represent normalized cellular p-pRb IC50.

CDK1/cyclin B = CDK1/cyclin B (Homo sapiens (Human), UniProt P06493); assay: CDK1/cyclin B enzymatic activity assay (IMAP-FP); type: biochemical; conditions: 100 nM Tamra Histone-H1 peptide, 20 μM ATP, 120 min at room temperature, read-out: Biochemical CDK1 enzyme IC50
Sequence of CDK1/cyclin B (P06493 whole entry, species assumed): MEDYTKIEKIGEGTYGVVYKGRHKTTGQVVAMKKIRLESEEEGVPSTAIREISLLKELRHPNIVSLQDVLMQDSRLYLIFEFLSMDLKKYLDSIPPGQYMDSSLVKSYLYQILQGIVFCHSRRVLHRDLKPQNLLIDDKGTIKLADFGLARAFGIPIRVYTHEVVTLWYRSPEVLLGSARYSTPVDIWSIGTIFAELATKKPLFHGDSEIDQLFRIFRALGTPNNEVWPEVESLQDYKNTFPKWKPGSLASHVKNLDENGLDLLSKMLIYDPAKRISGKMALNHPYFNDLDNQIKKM
Sequence of CDK1/cyclin B (P14635 whole entry partner, species assumed): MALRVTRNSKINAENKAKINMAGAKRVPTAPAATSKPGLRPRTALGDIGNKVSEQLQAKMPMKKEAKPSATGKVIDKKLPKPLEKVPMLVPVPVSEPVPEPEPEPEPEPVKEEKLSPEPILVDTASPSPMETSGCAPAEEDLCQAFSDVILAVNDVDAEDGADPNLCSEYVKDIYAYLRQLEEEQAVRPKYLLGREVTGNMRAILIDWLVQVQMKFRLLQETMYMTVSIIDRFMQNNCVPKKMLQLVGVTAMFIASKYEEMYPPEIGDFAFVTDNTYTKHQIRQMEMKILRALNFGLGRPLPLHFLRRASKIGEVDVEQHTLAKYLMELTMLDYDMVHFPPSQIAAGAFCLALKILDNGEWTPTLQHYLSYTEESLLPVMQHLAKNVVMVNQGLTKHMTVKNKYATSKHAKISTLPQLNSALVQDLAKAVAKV
From the text: CDK1/Cyclin B Enzymatic Activity Assay
A 384-well microtiter IMAP-FP™ (Molecular Devices Trade Mark Technology) endpoint assay was used for CDK1/cyclin B kinase activity measurements. The same assay was used for IC50 determination of small molecule inhibitors.

[2] = 0.3 nM CDK4/cyclin D1, 150 nM biotin-pRb (773-924), 3 μM ATP, 60 min at 22° C., read-out: Biochemical CDK4 enzyme IC50
[3] = JeKo-1, JeKo-1 cells, p-pRb % inhibition adjusted with total pRb levels, read-out: Normalized cellular ppRb inhibition IC50
[4] = JeKo-1, JeKo-1 cells, p-pRb Ser780 ELISA, non-normalized, read-out: Cellular ppRb inhibition IC50
[5] = JeKo-1 cells, p-pRb % inhibition adjusted with total pRb levels, read-out: Normalized cellular ppRb inhibition IC50
[6] = JeKo-1 cells, p-pRb Ser780 ELISA, non-normalized, read-out: Cellular ppRb inhibition IC50

Sequence of CDK4/cyclin D1 (P11802 whole entry): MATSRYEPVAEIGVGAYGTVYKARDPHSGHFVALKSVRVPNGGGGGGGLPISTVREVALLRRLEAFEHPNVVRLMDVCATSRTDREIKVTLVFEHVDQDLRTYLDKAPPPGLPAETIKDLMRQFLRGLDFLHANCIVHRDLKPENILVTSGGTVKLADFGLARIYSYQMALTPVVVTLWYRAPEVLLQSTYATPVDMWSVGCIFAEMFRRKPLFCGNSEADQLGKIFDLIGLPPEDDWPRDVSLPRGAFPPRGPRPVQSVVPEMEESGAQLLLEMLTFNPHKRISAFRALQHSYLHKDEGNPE
Sequence of CDK4/cyclin D1 (P24385 whole entry partner): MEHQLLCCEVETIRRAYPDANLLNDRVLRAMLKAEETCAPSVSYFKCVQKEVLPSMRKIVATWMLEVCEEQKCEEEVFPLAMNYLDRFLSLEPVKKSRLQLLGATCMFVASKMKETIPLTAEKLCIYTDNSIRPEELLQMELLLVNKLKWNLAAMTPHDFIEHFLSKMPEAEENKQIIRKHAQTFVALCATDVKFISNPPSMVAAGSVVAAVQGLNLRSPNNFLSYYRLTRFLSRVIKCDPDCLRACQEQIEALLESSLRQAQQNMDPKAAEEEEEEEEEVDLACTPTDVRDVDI

| Compound | IC50 (CDK4/cyclin D1; [2]) | IC50 [1, 3] | IC50 [1, 4] | IC50 (CDK1/cyclin B; […] CDK1/cyclin B) | IC50 [1, 5] | IC50 [1, 6] | IC50 (CDK4/cyclin D1) | IC50 ([1]; JeKo-1, read-out: Cellular ppRb inhibition IC50) | IC50 ([1]; JeKo-1, read-out: Normalized cellular ppRb inhibition IC50) | IC50 (CDK1/cyclin B; 0.25 nM CDK1/cyclin B) |
| --- | --- | --- | --- | --- | --- | --- | --- | --- | --- | --- |
| CN(C)C(=O)c1cc2cnc(Nc3ccc(C(=O)N4CC5CCC(C4)N5CCO)cn3)nc2n1C1CCCC1 [Example 28, 7-cyclopentyl-2-(5-(8-(2-hydroxyethyl)-3,8-diazabicyclo[3.2.1]octane-3-carbonyl)pyridin-2-ylamino)-N,N-dimethyl-7H-pyrrolo[2,3-d]pyrimidine-6-carboxamide] | 22 nM | 69 nM | 63 nM | > 15000 nM |  |  |  |  |  |  |
| CN(C)C(=O)c1cc2cnc(Nc3ccc(C(=O)N4C[C@H]5C[C@@H]4CN5)cn3)nc2n1C1CCCC1 [Example 49, 7-Cyclopentyl-2-[5-((R,R)-2,5-diaza-bicyclo[2.2.1]heptane-2-carbonyl)-pyridin-2-ylamino]-7H-pyrrolo[2,3-d]pyrimidine-6-carboxylic acid dimethylamide] | 45 nM | 52 to 431 nM | 44 to 231 nM | > 15000 nM |  |  |  |  |  |  |
| CC(CO)N1C2CCC1CN(C(=O)c1ccc(Nc3ncc4cc(C(=O)N(C)C)n(C5CCCC5)c4n3)nc1)C2 (centres unmarked) [Example 35, 7-cyclopentyl-2-(5-(8-(1-hydroxypropan-2-yl)-3,8-diazabicyclo[3.2.1]octane-3-carbonyl)pyridin-2-ylamino)-N,N-dimethyl-7H-pyrrolo[2,3-d]pyrimidine-6-carboxamide] | 26 nM | 197 nM | 69 nM | > 15000 nM |  |  |  |  |  |  |
| CN(C)C(=O)c1cc2cnc(Nc3ccc(N4C[C@@H]5CC[C@H](CC4=O)N5S(C)(=O)=O)cn3)nc2n1C1CCCC1 [Example 137, 7-cyclopentyl-N,N-dimethyl-2-(5-((1S,6R)-9-(methylsulfonyl)-4-oxo-3,9-diazabicyclo[4.2.1]nonan-3-yl)pyridin-2-ylamino)-7H-pyrrolo[2,3-d]pyrimidine-6-carboxamide] | 62 nM |  |  | > 15000 nM | 150 nM | 155 nM |  |  |  |  |
| CN(C)C(=O)c1cc2cnc(Nc3ccc(N4CC5(CC6CCC(C5)N6)OC4=O)cn3)nc2n1C1CCCC1 [Example 101, 7-cyclopentyl-N,N-dimethyl-2-(5-((1R,3r, 5S)-2′-oxo-8-azaspiro[bicyclo[3.2.1]octane-3,5′-oxazolidine]-3′-yl)pyridin-2-ylamino)-7H-pyrrolo[2,3-d]pyrimidine-6-carboxamide] | 20 nM |  |  | > 15000 nM | 110 nM | 58 nM |  |  |  |  |
| CN(C)C(=O)c1cc2cnc(Nc3ccc(C(=O)N4CC5(CNC5)C4)cn3)nc2n1C1CCCC1 [Example 41, 2-(5-(2,6-diazaspiro[3.3]heptane-2-carbonyl)pyridin-2-ylamino)-7-cyclopentyl-N,N-dimethyl-7H-pyrrolo[2,3-d]pyrimidine-6-carboxamide] | 15 to 17 nM |  |  | > 15000 nM | 132 to 415 nM | 112 to 228 nM |  |  |  |  |
| CN(C)C(=O)c1cc2cnc(Nc3ccc(C(=O)N4CC5CCC(C4)N5)cn3)nc2n1-c1cccc(C(C)(C)C)c1 [Example 54, 7-(3-tert-Butyl-phenyl)-2-[5-(3,8-diaza-bicyclo[3.2.1]octane-3-carbonyl)-pyridin-2-ylamino]-7H-pyrrolo[2,3-d]pyrimidine-6-carboxylic acid dimethylamide] | 3 nM | 8 to 47 nM | 6 to 33 nM | 1990 nM |  |  |  |  |  |  |
| CN(C)C(=O)c1cc2cnc(Nc3ccc(C(=O)N4CC5CNC(C5)C4)cn3)nc2n1C1CCCC1 (racemic) [Example 9, 7-Cyclopentyl-2-[5-(3,6-diaza-bicyclo[3.2.1]octane-3-carbonyl)-pyridin-2-ylamino]-7H-pyrrolo[2,3-d]pyrimidine-6-carboxylic acid dimethylamide] | < 4 nM | 120 nM | 55 nM | 7100 nM |  |  |  |  |  |  |
| CN(C)C(=O)c1cc2cnc(Nc3ccc(N4CC5CNCC5C4=O)cn3)nc2n1C1CCCCCC1 (centres unmarked) [Example 81, 7-Cycloheptyl-2-[5-(1-oxo-hexahydro-pyrrolo[3,4-c]pyrrol-2-yl)-pyridin-2-ylamino]-7H-pyrrolo[2,3-d]pyrimidine-6-carboxylic acid dimethylamide] |  |  |  |  |  |  | < 5 nM | 3 nM | 4 nM | 3810 nM |
| CC(=O)N1C2CCC1CN(C(=O)c1ccc(Nc3ncc4cc(C(=O)N(C)C)n(C5CCCCCC5)c4n3)nc1)C2 [Example 8, 2-(5-(8-acetyl-3,8-diazabicyclo[3.2.1]octane-3-carbonyl)pyridin-2-ylamino)-7-cycloheptyl-N,N-dimethyl-7H-pyrrolo[2,3-d]pyrimidine-6-carboxamide] | 39 nM |  |  | > 15000 nM | 259 nM | 72 nM |  |  |  |  |
| CN(C)C(=O)c1cc2cnc(Nc3ccc(C(=O)N4CCC[C@@H]5CCN[C@@H]5C4)cn3)nc2n1C1CCCC1 [Example 25, 7-Cyclopentyl-2-[5-((3aR,8aS)-octahydro-pyrrolo[2,3-c]azepine-7-carbonyl)-pyridin-2-ylamino]-7H-pyrrolo[2,3-d]pyrimidine-6-carboxylic acid dimethylamide] | 8 nM | 22 nM | 20 nM | > 15000 nM |  |  |  |  |  |  |
| CN(C)C(=O)c1cc2cnc(Nc3ccc(N4CC5(CC6CCC(C5)N6)OC4=O)cn3)nc2n1C1CCCCC1 [Example 94, 7-cyclohexyl-N,N-dimethyl-2-(5-((1R,3r,5S)-2′-oxo-8-azaspiro[bicyclo[3.2.1]octane-3,5′-oxazolidine]-3′-yl)pyridin-2-ylamino)-7H-pyrrolo[2,3-d]pyrimidine-6-carboxamide] | 41 to 44 nM | 34 to 206 nM | 25 to 154 nM | > 15000 nM |  |  |  |  |  |  |
| [2H]C([2H])([2H])N1[C@@H]2CC[C@H]1CN(c1ccc(Nc3ncc4cc(C(=O)N(C)C)n(C5CCCC5)c4n3)nc1)C(=O)C2 [Example 143, 7-Cyclopentyl-2-[5-((1S,6R)-9-trideuteromethyl-4-oxo-3,9-diazabicyclo[4.2.1]non-3-yl)-pyridin-2-ylamino]-7H-pyrrolo[2,3-d]pyrimidine-6-carboxylic acid dimethylamide] | 44 nM | 251 nM | 119 nM |  |  |  |  |  |  | > 15000 nM |
| CN(C)C(=O)c1cc2cnc(Nc3ccc(C(=O)N4CC5CCC(C4)N5)cn3)nc2n1C1CCN(C(C)(C)C)CC1 [Example 57, 7-(1-tert-Butyl-piperidin-4-yl)-2-[5-(3,8-diaza-bicyclo[3.2.1]octane-3-carbonyl)-pyridin-2-ylamino]-7H-pyrrolo[2,3-d]pyrimidine-6-carboxylic acid dimethylamide] | 1570 nM |  |  | > 15000 nM | > 10000 nM | > 10000 nM |  |  |  |  |
